Data published in ChEMBL document CHEMBL2203107, “Microwave-assisted synthesis and in vitro antibacterial activity of novel steroidal thiosemicarbazone derivatives” (Bioorg Med Chem Lett, 2012).
≈ marks a conversion by molar mass, not a printed value.

Legend:
Staphylococcus aureus [1] = test: Antibacterial activity against Staphylococcus aureus after 18 hrs by macrodilution method; format: functional
Bacillus subtilis = test: Antibacterial activity against Bacillus subtilis after 18 hrs by macrodilution method; format: functional
Pseudomonas aeruginosa = test: Antibacterial activity against Pseudomonas aeruginosa after 18 hrs by macrodilution method; format: functional
Staphylococcus aureus [2] = test: Antibacterial activity against Staphylococcus aureus; format: functional, organism-based

Row | SMILES | MIC (Staphylococcus aureus [1]) | MIC (Bacillus subtilis) | MIC (Pseudomonas aeruginosa) | IC50 (Staphylococcus aureus [2])
1 | COC(=O)CC[C@@H](C)[C@H]1CC[C@H]2[C@@H]3C/C(=N/NC(=S)Nc4ccc(C)cc4)[C@@H]4C/C(=N/NC(=S)Nc5ccc(C)cc5)CC[C@]4(C)[C@H]3CC[C@]12C | 128 mg/L (≈ 176 µM) | 128 mg/L (≈ 176 µM) | 4 mg/L (≈ 5.49 µM) | –
2 | COC(=O)CC[C@@H](C)[C@H]1CC[C@H]2[C@@H]3/C(=N/NC(=S)Nc4cccc(F)c4)C[C@@H]4C/C(=N/NC(=S)Nc5cccc(F)c5)CC[C@]4(C)[C@H]3CC[C@]12C | 8 mg/L (≈ 10.9 µM) | 8 mg/L (≈ 10.9 µM) | 32 mg/L (≈ 43.4 µM) | 1.02 mg/L (≈ 1.38 µM)
3 | COC(=O)CC[C@@H](C)[C@H]1CC[C@H]2[C@@H]3C(=O)C[C@@H]4C/C(=N/NC(=S)Nc5ccc(F)cc5)CC[C@]4(C)[C@H]3CC[C@]12C | 128 mg/L (≈ 225 µM) | 128 mg/L (≈ 225 µM) | 128 mg/L (≈ 225 µM) | –
4 | COC(=O)CC[C@@H](C)[C@H]1CC[C@H]2[C@@H]3C(=O)C[C@@H]4C/C(=N/NC(=S)Nc5ccc(OC)cc5)CC[C@]4(C)[C@H]3CC[C@]12C | 128 mg/L (≈ 220 µM) | 32 mg/L (≈ 55 µM) | 128 mg/L (≈ 220 µM) | –
5 | COC(=O)CC[C@@H](C)[C@H]1CC[C@H]2[C@@H]3CC[C@@H]4C/C(=N/NC(=S)Nc5ccc(Br)cc5)CC[C@]4(C)[C@H]3CC(=O)[C@]12C | > 128 mg/L | > 128 mg/L | 2 mg/L (≈ 3.17 µM) | –
6 | COC(=O)CC[C@@H](C)[C@H]1CC[C@H]2[C@@H]3C(=O)C[C@@H]4C/C(=N/NC(=S)Nc5cccc6ccccc56)CC[C@]4(C)[C@H]3CC[C@]12C | > 128 mg/L | 32 mg/L (≈ 53.2 µM) | 16 mg/L (≈ 26.6 µM) | –
7 | COC(=O)CC[C@@H](C)[C@H]1CC[C@H]2[C@@H]3/C(=N/NC(=S)Nc4ccc(Br)cc4)C[C@@H]4C/C(=N/NC(=S)Nc5ccc(Br)cc5)CC[C@]4(C)[C@H]3CC[C@]12C | 32 mg/L (≈ 37.3 µM) | > 128 mg/L | 16 mg/L (≈ 18.6 µM) | 2.85 mg/L (≈ 3.32 µM)
8 | COC(=O)CC[C@@H](C)[C@H]1CC[C@H]2[C@@H]3CC[C@@H]4C/C(=N/NC(=S)Nc5ccccc5)CC[C@]4(C)[C@H]3CC(=O)[C@]12C | > 128 mg/L | 64 mg/L (≈ 116 µM) | 32 mg/L (≈ 58 µM) | –
9 | COC(=O)CC[C@@H](C)[C@H]1CC[C@H]2[C@@H]3CC[C@@H]4C/C(=N/NC(=S)Nc5ccc(F)cc5)CC[C@]4(C)[C@H]3CC(=O)[C@]12C | > 128 mg/L | > 128 mg/L | 4 mg/L (≈ 7.02 µM) | –
10 | COC(=O)CC[C@@H](C)[C@H]1CC[C@H]2[C@@H]3CC[C@@H]4C/C(=N/NC(=S)Nc5ccc(OC)cc5)CC[C@]4(C)[C@H]3CC(=O)[C@]12C | > 128 mg/L | > 128 mg/L | 2 mg/L (≈ 3.44 µM) | –
11 | COC(=O)CC[C@@H](C)[C@H]1CC[C@H]2[C@@H]3C/C(=N/NC(=S)Nc4ccc(OC)cc4)[C@@H]4C/C(=N/NC(=S)Nc5ccc(OC)cc5)CC[C@]4(C)[C@H]3CC[C@]12C | 32 mg/L (≈ 42 µM) | 128 mg/L (≈ 168 µM) | 4 mg/L (≈ 5.26 µM) | –
12 | COC(=O)CC[C@@H](C)[C@H]1CC[C@H]2[C@@H]3C/C(=N/NC(=S)Nc4ccc(Br)cc4)[C@@H]4C/C(=N/NC(=S)Nc5ccc(Br)cc5)CC[C@]4(C)[C@H]3CC[C@]12C | 64 mg/L (≈ 74.5 µM) | 128 mg/L (≈ 149 µM) | 2 mg/L (≈ 2.33 µM) | –
13 | COC(=O)CC[C@@H](C)[C@H]1CC[C@H]2[C@@H]3C(=O)C[C@@H]4C/C(=N/NC(=S)Nc5ccc(C)cc5)CC[C@]4(C)[C@H]3CC[C@]12C | > 128 mg/L | 32 mg/L (≈ 56.6 µM) | 16 mg/L (≈ 28.3 µM) | –
14 | COC(=O)CC[C@@H](C)[C@H]1CC[C@H]2[C@@H]3/C(=N/NC(=S)Nc4ccc(OC)cc4)C[C@@H]4C/C(=N/NC(=S)Nc5ccc(OC)cc5)CC[C@]4(C)[C@H]3CC[C@]12C | 64 mg/L (≈ 84.1 µM) | > 128 mg/L | 4 mg/L (≈ 5.26 µM) | 3.25 mg/L (≈ 4.27 µM)
15 | CC1(C)S[C@@H]2[C@H](NC(=O)[C@H](N)c3ccc(O)cc3)C(=O)N2[C@H]1C(=O)O [AMOXICILLIN] | 32 mg/L (≈ 87.6 µM) | 16 mg/L (≈ 43.8 µM) | 2 mg/L (≈ 5.47 µM) | 2.84 mg/L (≈ 7.77 µM)
16 | COC(=O)CC[C@@H](C)[C@H]1CC[C@H]2[C@@H]3C/C(=N/NC(=S)Nc4cccc(F)c4)[C@@H]4C/C(=N/NC(=S)Nc5cccc(F)c5)CC[C@]4(C)[C@H]3CC[C@]12C | 32 mg/L (≈ 43.4 µM) | 128 mg/L (≈ 174 µM) | 128 mg/L (≈ 174 µM) | –
17 | COC(=O)CC[C@@H](C)[C@H]1CC[C@H]2[C@@H]3/C(=N/NC(=S)Nc4ccccc4)C[C@@H]4C/C(=N/NC(=S)Nc5ccccc5)CC[C@]4(C)[C@H]3CC[C@]12C | > 128 mg/L | 128 mg/L (≈ 183 µM) | 8 mg/L (≈ 11.4 µM) | –
